The subject of data set [1] is d(CGCA3 T3 GCG (SEQ ID NO:3))2. Briefly: Dynamics of ligand exchange in the 1:1 complex (ROESY NMR). In kind it is binding. Particulars: 10° C. Here is the method: The data matrix was zero filled to 2K and appodized with a gaussian function to give a line broadening of 1 Hz in both frequency domains. The ROESY experiment was recorded at 10° C. using the Kessler pulse sequence (Kessler, H.; Griesinger, C.; Kerssebaum, R.; Wagner, E.: Ernst, R. J Am. Chem. Soc. 1987, 109, 607) with a mixing time of 50 ms and a locking field strength of 2.5 kHz.
The linearity of the NOE build-up with tm was checked for most of the dsDNA proton interactions between 50 and 180 ms and a 5-20 fold increase was found in the NOE volume integrals from the 50 to 180 ms mixing times. The exchange rate (kex) was calculated from eq 3 as follows:
kex =ln((1+R)/2.tau.m (1-R)), s^-1 eq(3) […]
The free energy of activation, ΔG*, for this exchange process at a certain temperature, T (K), was calculated from eq 4 (Gunther, H. "NMR Spectroscopy: An Introduction", John Wiley, New York, 1980, p. 241).
Exchanges between two equivalent binding sites have been proposed for dsDNA complexes of distamycin (Pelton et al., 1990, supra) and netropsin (Patel et al., 1985, supra). If we consider that the exchange is governed by a "flip-flop" mechanism (Pelton et al., 1990, supra) (FIG. 18), not excluding the possible existence of a fast sliding motion of 6b in the minor groove, the rate of exchange can be calculated (Experimental Section).

Data set [2] has as its system calf thymus topoisomerase I. Briefly: Topoisomerase I inhibition assays (relaxation of supercoiled pBR322). In kind it is biochemical. Particulars: for inhibition of topoI relaxation of supercoiled pBR322: agent preincubated with DNA 1 hr before 18 hr topoI reaction, 37° C; for inhibition of topoI after partial relaxation: added after 0.5 hr topoI incubation, then 18 hr. As to the method: Inhibition of topoI's action on supercoiled pBR322 by 6b was compared to inhibition by Dm and 5b (dien-microgonotropen-b). In the first set of experiments, each agent was allowed to incubate with the DNA for 1 hr prior to the 18 hr topoI reaction period.
In closely related experiments, the mode of inhibition of topoI was examined. This was accomplished by allowing the supercoiled DNA to be partially relaxed for 0.5 hr with topoI before any other DNA ligands were added (FIG. 6).
The buffer for all of the 50 μL reactions was composed of 50 mM Tris-HCl, pH 7.5, 50 mM KCl, 10 mM MgCl2, and 1 mM EDTA that was filtered through a sterile 0.45μ Gelman Sciences Acrodisc. Every reaction mixture contained 1 μg of supercoiled pBR322 plasmid (Pharmacia) and, except for the supercoiled control, every reaction mixture included 10 units of calf thymus topoisomerase I (Bethesda Research Laboratories).
All reactions were extracted twice with water-saturated phenol, extracted once with chloroform, and precipitated with ammonium acetate and ethanol.
The different helical forms of pBR322 created by the relaxation assays were electrophoretically separated through a 4% NuSieve 3:1 (hydroxyethylated) agarose gel (vertical, 0.8 mm) in 40 mM Tris-acetate, pH 8.0 and 1 mM EDTA for 8 hr at 2 V/cm.

Data set [3] has as its system 167 bp EcoRI/RsaI pBR322 restriction fragment. Briefly: DNase I footprint analysis. In kind it is binding.
In data set [4] the test system is .phi.X-174-RF DNA HaeIII restriction digest fragments. The data set can be described thus: Electrophoretic mobility shift assay. In kind it is binding. Particulars: for RL vs. agent concentration: 1078 bp fragment; for order of effectiveness in increasing the apparent length of DNA fragments: RL values; for change in electrophoretic behavior: 150 μM. Background: A gel shift assay detects complexes by their altered migration in electrophoresis.

Data set [5] has as its target d(GGCGCAAATTTGGCGG)(SEQ ID NO:1)/d(CCGCCAAATTTGCGCC)(SEQ ID NO:2). Briefly: Hoechst 33258 (Ht) fluorescence competition, equilibrium association constants with hexadecamer duplex. In kind it is binding. Particulars: for log KL1: association constant of first ligand, H2O, 10 mM phosphate buffer, pH 7.0, 10 mM NaCl, 35° C, for Ht = log KHt1, Dm, 2, 5a-c recalculated from previously collected data; for log KL1 / log KL2 / log KHtL: mean ± SD; for log KL1 / log KL2: Ht; for log KL2: association constant of second ligand, for Ht = log KHt2, Dm, 2, 5a-c recalculated; for log KHtL: binding of L to DNA:Ht; for log KL1 KL2: complex association constant. As to the method: Equilibrium constants for the association of 6a and 6b with oligomeric DNA were assessed by the complexing of tren-microgonotropen-a and -b to the hexadecamer d(GGCGCAAATTTGGCGG)(SEQ ID NO:1)/d(CCGCCAAATTTGCGCC)(SEQ ID NO:2) in aqueous solutions at 35° C. (2.8 mL solutions containing 0.01M phosphate buffer, pH 7.0, and 0.01M NaCl).
These reactions were followed by the competition of the dye Hoechst 33258 (Ht) with 6a and 6b for the A3 T3 minor groove binding site (an extension of Ht alone binding to dsDNA). The concentrations of 6a and 6b were confirmed by ^1 H NMR peak integration of resonances with those of an equivalent concentration of mesitoate.
As shown previously (Browne, K. A.; He, G.-X.; Bruice, T. C. J. Am. Chem. Soc. 1993, 115, 7072), monitoring the increase in fluorescence intensity as the association of Ht with the hexadecamer displaces prebound nonfluorescent ligands is an excellent method for determining equilibrium binding constants. FIG. 17 relates the equilibrium constants for the complexing of one and two Ht species to the hexadecamer with one and two L (where L=6a or 6b) binding to the hexadecamer, plus equilibrium constants for the simultaneous binding of one Ht and one L at the same site. [formula]
Eq 1, derived from FIG. 17, relates each of the equilibrium binding constants, the total fluorescence (Σθ), and [L] in terms of fluorescence (F) and [Ht]. The rationale behind FIG. 17 and the subsequent derivation of eq 1 have been described in considerable detail (Browne, et al., 1993, supra). The values of log KHt1 =7.6 and log KHt2 =9.1 used were determined from a reevaluation of data previously collected (Browne, et al., 1993, supra) and are very close to the previously determined values. A concentration independent static quenching term, Q', is included in eq 1 to account for the lessened fluorescent emission of the DNA:Ht:L complex compared to the DNA:Ht and DNA:Ht2 complexes.
The equilibrium association constants calculated as best fits to the experimental data points for 6a and 6b with eq 1 are presented in Table I. Plots of F vs. [Ht] using these constants at 8.0×10^-9, 1.0×10^-8, and 1.2×10^-8 M ligand and 5.0×10^-9 M in hexadecamer duplex are shown in FIGS. 3a and 3b.
Reagents and methods for DNA binding studies were exactly the same as used previously (He, et al., 1993, supra; Browne, et al., 1993, supra) unless stated otherwise. The values for the equilibrium constants for 2, 5a,b,c, Dm, and Ht were recalculated from previously collected data (Browne, et al., 1993, supra) using the curve fitting program SigmaPlot® 4.1.4 (Jandel Scientific, San Rafael, Calif.). The equilibrium constants for 6a and 6b were calculated with SigmaPlot® 4.1.4 using the reevaluated constants for Ht (KHt1 and KHt2).

Data set [6] has as its system d(GGCGCAAATTTGGCGG)(SEQ ID NO:1)/d(CCGCCAAATTTGCGCC)(SEQ ID NO:2). Particulars: hexadecamer; Browne et al., 1993; cited from earlier work.
For data set [7], the system named is d(CGCA3 T3 GCG (SEQ ID NO:3))2. Particulars: 30° C; Pelton et al., 1990; cited from earlier work.
The next data set concerns mice. Particulars: cited from earlier work.
Setting [8] is: 25 and 50 μM (0.25 and 0.5 ligand/bp DNA).

Several values for one entry are separate records, joined by “and”; a condition that tells them apart may be missing. Equal values may be shown once. Entries after “also recorded” stand apart in the source; their conditions may differ. Read-outs that look alike come from different tables or passages of the source.

With `CC(=O)Nc1cc(C(=O)Nc2cc(C(=O)Nc3cc(C(=O)NCCCN(C)C)n(C)c3)n(CCCCNCCN(CCN)CCN)c2)n(C)c1` [Compound 6b], in data set [1], the “activation energy (ΔG*) of exchange” value was ~ 17 kcal/mol. Further, the “inhibition of topoI relaxation of supercoiled pBR322” value (from here on “inhibition … of supercoiled pBR322”) in data set [2] (10 μM) is “the predominant isomer is the fully supercoiled species”. Besides, in data set [2] (30 μM), the “inhibition of topoI after partial relaxation” value was “inhibited topoI even after pBR322 was considerably unwound” and the “inhibition … of supercoiled pBR322” value is recorded as “complete inhibition of topoI”. Further, in data set [3] (5 μM (0.05 ligand/bp DNA)), the “inhibition of DNase I cleavage at the four A+T-rich binding sites” value (shortened to “inhibition of DNase I cleavage”) is recorded as “did not produce detectable inhibition of DNase I cleavage”. In data set [3] (setting [8]), the “inhibition of DNase I cleavage” value is listed as “specific inhibition of cleavage was observed at three of the four sites”. Further, in data set [4], the “RL vs. agent concentration” value was “quite concentration dependent and sigmoidal in response”; the “order of effectiveness in increasing the apparent length of DNA fragments” value is listed as 6a^~ 6b>>distamycin>tren. Further, in data set [4] (increasing concentration 20, 40, 60, 80 μM), the “electrophoretic mobility of DNA restriction fragments” value was “the mobility of DNA restriction fragments decreases”. The “log KL1” value in data set [5] is on record as 8.9 ± 0.08. Further, in data set [5] (pH 7.0, 35° C), the “log KL2” value is listed as 9.0 ± 0.2, the “log KHtL” value stood at 10.3 ± 0.1 and the “log KL1 KL2” value stood at 17.9. In data set [5] (first ligand, hexadecamer A3T3 site, pH 7.0, 35° C), the “KL1 (association constant)” value is 7.9e+08 M⁻¹ and 8e+08 M⁻¹. In addition, the “complex equilibrium association constants (KL1 KL2)” value in data set [5] (hexadecamer, Table I) was 8×10^17 M^-2. Besides, the “quenching of Ht fluorescence” value in data set [5] (in DNA:Ht:L complex, from Q') was determined as 36%. In data set [5] (second ligand, hexadecamer, pH 7.0, 35° C), this compound registered a KL2 of 1e+09 M⁻¹.
A word on the LD50: it is the dose expected to kill half of the subjects tested. As to `Cn1cc(NC(=O)c2cc(NC(=O)c3cc(NC=O)cn3C)cn2C)cc1C(=O)NCCC(=N)N` [Dm, Distamycin], the “equilibrium constant for 1:1 complex formation” value in data set [6] was 4e+07 M⁻¹. Moreover, the “rate constant for exchange” value in data set [7] is 0.2 s⁻¹. In addition, in data set [2] (150 μM), the “inhibition of topoI after partial relaxation” value is on record as “no effect” and the “inhibition … of supercoiled pBR322” value is “only partially inhibited; also recorded: partial inhibition”. In addition, in data set [3] (5 μM (0.05 ligand/bp DNA)), the “inhibition of DNase I cleavage” value is on record as “did not produce detectable inhibition of DNase I cleavage”. The “inhibition of DNase I cleavage” value in data set [3] (setting [8]) is “specific inhibition of cleavage was observed at three of the four sites”. The “enhancements in or increased rates of DNase I cleavage at specific sequences” value in data set [3] (highest concentrations, 5'- and 3'-labeled fragments) is listed as “showed enhancements similar to those found previously”. Moreover, the LD50 with mice (i.p.) was 500 mg/kg. In the data set on mice (i.v.), the median lethal dose (LD50) is 75 mg/kg. Besides, in data set [4], the “change in electrophoretic behavior” value is “smaller changes at 150 μM (0.66 ligand/bp) than 6a or 6b at 40 μM”, the “RL vs. agent concentration” value was “does not demonstrate very marked changes even at the highest concentrations examined” and the “order of effectiveness in increasing the apparent length of DNA fragments” value worked out at 6a^~ 6b>>distamycin>tren. In data set [5], the “log KL1” value is 7.6 ± 0.09. In addition, in data set [5] (pH 7.0, 35° C), the “log KL2” value was 8.4 ± 0.08, the “log KHtL” value is recorded as 8.8 ± 0.09 and the “log KL1 KL2” value is reported as 16.0.
Regarding `CN1CCN(c2ccc3[nH]c(-c4ccc5[nH]c(-c6ccc(O)cc6)nc5c4)nc3c2)CC1` [Ht, Hoechst 33258], in data set [5], the “log KL1” value is 7.6 and 7.6 ± 0.1. Also, in data set [5] (pH 7.0, 35° C), the “log KL2” value was 9.1 and 9.1 ± 0.2.
`NCCN(CCN)CCN` [Tren, tris(2-aminoethyl)amine]: in data set [4], the “change in electrophoretic behavior” value was “no apparent change in electrophoretic behavior” and the “order of effectiveness in increasing the apparent length of DNA fragments” value stood at 6a^~ 6b>>distamycin>tren.
